How the values were obtained:
H1 = H1 (Homo sapiens (Human), UniProt P35367); assay: H1 binding assay ([3H]pyrilamine, HEK293 stable cell line membranes); settings: Table E, class symbols
Procedure: Example 25. H1 and 5-HT2A Binding Assay Protocol
(§1) The testing compounds were diluted with DMSO, starting at 2 mM, with 8-points and 5-fold serial dilutions. Ketanserin and Pyrilamine were diluted with DMSO, starting at 0.2 mM, with 8-points and 5-fold serial dilution.
(§2) 1 μl of a compounds of the present disclosure and either reference compound (Table C) were transferred to assay plates. 1 μl of 0.2 mM Ketanserin or Pyrilamine was transferred to an assay plate according to the plate map for nonspecific binding (Low control: LC). 1 μl of DMSO was transferred to an assay plate according to plate map for total binding (High control: HC).
(§3) 100 μlof membrane stocks were dispensed into the plates, following the plate map. 100 of radio ligand was added. The plates were sealed and shaken at 300 rpm at room temperature for 1 hour. The Unifilter-96 GF/C filter plates were soaked with 50 of 0.3% PEI per well for at least 0.5 hour at room temperature.
(§4) When the binding assays were complete, the reaction mixture was filtered through GF/C plates using Perkin Elmer Filtermate Harvester, and then each plate was washed 4 times with cold wash buffer. The filter plates were dried for 1 hour at 50 degrees. After drying, the bottom of the filter plate wells were sealed using Perkin Elmer Unifilter-96 backing seal tape. 50 μl of Perkin Elmer Microscint 20 cocktail was added. The top of the filter plates were sealed with Perkin Elmer TopSeal-A sealing film.
(§5) ^3H trapped on filters were counted using Perkin Elmer MicroBeta2 Reader. Inhibition constants were calculated using the following equation:
(§6) [formula] The data was analyzed using Prism 5. The model used was “log(inhibitor) vs. response—Variable slope” to fit the data and calculate IC50. The IC50 was then converted to Ki using following equation: Ki=IC50/(1+L/Kd). L is the radioligand concentration in the reaction system; Kd is the affinity of radioligand to the receptor.

5-HT2A = 5-HT2A (Homo sapiens (Human), UniProt P28223); assay: 5-HT2A binding assay ([3H]-Ketanserin, HEK293 stable cell line membranes); settings: Table F, class symbols
Procedure: H1 and 5-HT2A Binding Assay Protocol
as §1, §2, §3, §4, §5, §6

[1] = Human clearance and half-life projections (allometric scaling from monkey clearance)
Procedure: (§7) The biological activity of the compounds of the present disclosure may be determined utilizing projected human clearance (CL) and half-life in humans. An allometric scaling method, using a single species scaling from monkey clearance was used to project clearance. Human volume of distribution (Vd) was projected from animal Vd, adjusted for differences in plasma protein binding and assuming similar unbound Vd across species. Human half-life (T1/2) was calculated based on a one-compartmental model, using a relationship of T1/2=0.693×(predicted Vd/predicted CL).
as §7, with “An” for “The biological activity of the compounds of the present disclosure may be determined utilizing projected human clearance (CL) and half-life in humans. An”

H1, sequence (P35367 whole entry): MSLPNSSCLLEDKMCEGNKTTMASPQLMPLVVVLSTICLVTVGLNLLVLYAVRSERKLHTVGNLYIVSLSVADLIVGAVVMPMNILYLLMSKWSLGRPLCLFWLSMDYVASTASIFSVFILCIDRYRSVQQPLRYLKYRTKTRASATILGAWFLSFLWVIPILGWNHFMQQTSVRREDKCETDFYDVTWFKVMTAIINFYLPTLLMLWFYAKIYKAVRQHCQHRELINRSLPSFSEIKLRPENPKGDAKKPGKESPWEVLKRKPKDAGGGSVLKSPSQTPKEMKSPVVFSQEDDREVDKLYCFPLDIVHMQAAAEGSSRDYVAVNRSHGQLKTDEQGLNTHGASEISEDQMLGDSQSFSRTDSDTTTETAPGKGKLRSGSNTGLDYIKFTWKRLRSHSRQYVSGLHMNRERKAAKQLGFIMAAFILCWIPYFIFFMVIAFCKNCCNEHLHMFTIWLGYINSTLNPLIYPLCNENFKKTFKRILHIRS
5-HT2A, sequence (P28223 whole entry, species assumed): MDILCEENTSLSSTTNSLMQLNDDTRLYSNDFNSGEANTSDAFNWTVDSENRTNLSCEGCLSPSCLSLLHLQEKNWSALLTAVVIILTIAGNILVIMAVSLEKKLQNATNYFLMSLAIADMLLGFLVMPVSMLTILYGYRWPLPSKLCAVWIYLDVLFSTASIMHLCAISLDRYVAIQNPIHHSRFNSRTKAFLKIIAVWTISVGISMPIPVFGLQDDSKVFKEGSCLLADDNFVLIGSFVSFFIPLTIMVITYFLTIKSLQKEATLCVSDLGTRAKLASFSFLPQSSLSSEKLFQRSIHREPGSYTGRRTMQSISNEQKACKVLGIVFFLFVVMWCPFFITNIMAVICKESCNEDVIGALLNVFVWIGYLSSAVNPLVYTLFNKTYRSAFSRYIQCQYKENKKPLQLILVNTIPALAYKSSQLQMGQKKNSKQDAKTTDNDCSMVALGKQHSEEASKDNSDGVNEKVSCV

In the case of `Cc1ccc2c(c1)Oc1cc(C)ccc1C(N1CCN(CC(C)(C)C(=O)O)CC1)=N2` [Compound No. 7, 3-(4-(3,7-dimethyldibenzo[b,f][1,4]oxazepin-11-yl)piperazin-1-yl)-2,2-dimethylpropanoic acid], the Ki (H1) is reported as over 50 nM, the Ki (5-HT2A) is reported as 1 to 25 nM and the “T1/2 (h), projected human half-life” value ([1]; one-compartmental model, T1/2=0.693×(predicted Vd/predicted CL)) is reported as 4 to 8 h. For the same molecule, the “CL (mL/min/kg), projected human clearance” value ([1]; single species scaling from monkey clearance) was 1.3 mL/min/kg.

Reference: patent US11046651B2, “Piperazine substituted azapine derivatives and uses thereof” (Alairion, Inc., priority 2019, dated 2021)
